Measurements published in US11345700B2, “Methods of preparing inhibitors of influenza viruses replication” (priority 2013, dated 2022).
Like-named read-outs stand apart in the source and are kept apart here.

Columns and labels:
influenza A strains = assay: microbe, parasite or virus in culture; type: cell-based
[1] = Human influenza challenge: safety assessment, adverse events; type: in vivo, healthy volunteers (humans)
From the text: A list of adverse events occurring in ≥10% of subjects in any treatment group is presented (Table 29). Influenza-like illness was the most frequently reported adverse event, and was reported by an approximately equal proportion of subjects in the placebo and Compound (1) groups.

O=C(O)[C@H]1[C@H]2CC[C@H](CC2)[C@@H]1Nc1nc(-c2c[nH]c3ncc(F)cc23)ncc1F [Compound (1)]
EC50 (influenza A strains; ATCC 2 / H1N1, MDCK, read-out: Cell Protection Assay EC50 ± SD): 1.9 ± 3 nM | EC50 (influenza A strains; ATCC 3 / H1N1, MDCK, read-out: Cell Protection Assay EC50 ± SD): 1.9 ± 3.2 nM | EC50 (influenza A strains; H1N1, MDCK, in Sus scrofa, read-out: Cell Protection Assay EC50 ± SD, A/Swine/1976/31, H1N1): 0.47 ± 0.11 nM | EC50 (influenza A strains; H1N1, MDCK, in Sus scrofa, read-out: Cell Protection Assay EC50 ± SD, A/Swine/Iowa/15/30, H1N1): 0.65 ± 0.082 nM | EC50 (influenza A strains; H1N1, MDCK, read-out: Cell Protection Assay EC50 ± SD, A/New Jersey/8/76, H1N1): 0.2 ± 0.096 nM | EC50 (influenza A strains; H3N8, MDCK, in Equus caballus, read-out: Cell Protection Assay EC50 ± SD, A/Equine/2/Miami/63, H3N8): 0.5 ± 0.065 nM | tolerability ([1]; 100 mg to 1200/600 mg QD for 5 days, healthy volunteers): well tolerated | Adverse event: Alanine aminotransferase increased ([1]; 100 mg, N = 16): 3 (18.8) n(%) | Adverse event: Aspartate aminotransferase increased ([1]; 100 mg, N = 16): 1 (6.3) n(%) | Adverse event: Blood phosphorus decreased ([1]; 100 mg, N = 16): 3 (18.8) n(%) | Adverse event: Dermatitis contact ([1]; 100 mg, N = 16): 3 (18.8) n(%) | Adverse event: Headache ([1]; 100 mg, N = 16): 1 (6.3) n(%) | Adverse event: Influenza-like illness ([1]; 100 mg, N = 16): 8 (50.0) n(%) | Adverse event: Malaise ([1]; 100 mg, N = 16): 2 (12.5) n(%) | Adverse event: Nasal congestion ([1]; 100 mg, N = 16): 0 n(%) | Adverse event: Nausea ([1]; 100 mg, N = 16): 0 n(%) | Adverse event: Oropharylngeal pain ([1]; 100 mg, N = 16): 2 (12.5) n(%) | Adverse event: Rhinorrhea ([1]; 100 mg, N = 16): 0 n(%) | Adverse event: Spirometry abnormal ([1]; 100 mg, N = 16): 2 (12.5) n(%) | Adverse event: Tension Headache ([1]; 100 mg, N = 16): 0 n(%) | Adverse event: Alanine aminotransferase increased ([1]; 400 mg, N = 19): 1 (5.3) n(%) | Adverse event: Aspartate aminotransferase increased ([1]; 400 mg, N = 19): 1 (5.3) n(%) | Adverse event: Blood phosphorus decreased ([1]; 400 mg, N = 19): 0 n(%) | Adverse event: Dermatitis contact ([1]; 400 mg, N = 19): 0 n(%) | Adverse event: Headache ([1]; 400 mg, N = 19): 4 (21.1) n(%) | Adverse event: Influenza-like illness ([1]; 400 mg, N = 19): 10 (52.6) n(%) | Adverse event: Malaise ([1]; 400 mg, N = 19): 0 n(%) | Adverse event: Nasal congestion ([1]; 400 mg, N = 19): 0 n(%) | Adverse event: Nausea ([1]; 400 mg, N = 19): 2 (10.5) n(%) | Adverse event: Oropharylngeal pain ([1]; 400 mg, N = 19): 0 n(%) | Adverse event: Rhinorrhea ([1]; 400 mg, N = 19): 2 (10.5) n(%) | Adverse event: Spirometry abnormal ([1]; 400 mg, N = 19): 4 (21.1) n(%) | Adverse event: Tension Headache ([1]; 400 mg, N = 19): 2 (10.5) n(%) | Adverse event: Alanine aminotransferase increased ([1]; 900/600 mg, N = 19): 0 n(%) | Adverse event: Aspartate aminotransferase increased ([1]; 900/600 mg, N = 19): 0 n(%) | Adverse event: Blood phosphorus decreased ([1]; 900/600 mg, N = 19): 6 (31.6) n(%) | Adverse event: Dermatitis contact ([1]; 900/600 mg, N = 19): 0 n(%) | Adverse event: Headache ([1]; 900/600 mg, N = 19): 0 n(%) | Adverse event: Influenza-like illness ([1]; 900/600 mg, N = 19): 9 (47.4) n(%) | Adverse event: Malaise ([1]; 900/600 mg, N = 19): 0 n(%) | Adverse event: Nasal congestion ([1]; 900/600 mg, N = 19): 0 n(%) | Adverse event: Nausea ([1]; 900/600 mg, N = 19): 1 (5.3) n(%) | Adverse event: Oropharylngeal pain ([1]; 900/600 mg, N = 19): 1 (5.3) n(%) | Adverse event: Rhinorrhea ([1]; 900/600 mg, N = 19): 0 n(%) | Adverse event: Spirometry abnormal ([1]; 900/600 mg, N = 19): 0 n(%) | Adverse event: Tension Headache ([1]; 900/600 mg, N = 19): 1 (5.3) n(%) | Adverse event: Alanine aminotransferase increased ([1]; 1200/600 mg, N = 18): 6 (33.3) n(%) | Adverse event: Aspartate aminotransferase increased ([1]; 1200/600 mg, N = 18): 2 (11.1) n(%) | Adverse event: Blood phosphorus decreased ([1]; 1200/600 mg, N = 18): 4 (22.2) n(%) | Adverse event: Dermatitis contact ([1]; 1200/600 mg, N = 18): 0 n(%) | Adverse event: Headache ([1]; 1200/600 mg, N = 18): 2 (11.1) n(%) | Adverse event: Influenza-like illness ([1]; 1200/600 mg, N = 18): 7 (38.9) n(%) | Adverse event: Malaise ([1]; 1200/600 mg, N = 18): 0 n(%) | Adverse event: Nasal congestion ([1]; 1200/600 mg, N = 18): 1 (5.6) n(%) | Adverse event: Nausea ([1]; 1200/600 mg, N = 18): 0 n(%) | Adverse event: Oropharylngeal pain ([1]; 1200/600 mg, N = 18): 0 n(%) | Adverse event: Rhinorrhea ([1]; 1200/600 mg, N = 18): 1 (5.6) n(%) | Adverse event: Spirometry abnormal ([1]; 1200/600 mg, N = 18): 4 (22.2) n(%) | Adverse event: Tension Headache ([1]; 1200/600 mg, N = 18): 0 n(%) | adverse event incidence: decreased blood phosphorus level ([1]; Compound (1) groups): 18.1% | adverse event incidence: nasal congestion ([1]; Compound (1) groups): 1.4% | adverse event incidence: rhinorrhea ([1]; Compound (1) groups): 4.2% | Adverse event: Alanine aminotransferase increased ([1]; Pooled Compound (1), N = 72): 10 (13.9) n(%) | Adverse event: Aspartate aminotransferase increased ([1]; Pooled Compound (1), N = 72): 4 (5.6) n(%) | Adverse event: Blood phosphorus decreased ([1]; Pooled Compound (1), N = 72): 13 (18.1) n(%) | Adverse event: Dermatitis contact ([1]; Pooled Compound (1), N = 72): 3 (4.2) n(%) | Adverse event: Headache ([1]; Pooled Compound (1), N = 72): 7 (9.7) n(%) | Adverse event: Influenza-like illness ([1]; Pooled Compound (1), N = 72): 34 (47.2) n(%) | Adverse event: Malaise ([1]; Pooled Compound (1), N = 72): 2 (2.8) n(%)
